Some test systems named below: ACHN; CCRF-CEM; IGROV-1; EKVX; TK-10; SK-MEL-2; HCT-116; MDA-N; PC-3; NCI-H522; SNB-19; NCI-H226; SF-539; NCI-H23; 786-0; OVCAR-5; U-251; T47D; SF-295.
Experiment in all cases: DTP human tumour cell line panel, 48 h

This note sets out measurements from ChEMBL document CHEMBL1201862, “PubChem BioAssay data set” (2004).

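Step 1: Grow cells in 96-well plates. Step 2: Expose to compound for 48 hours at 5 concentrations. Step 3: Interpolate endpoints linearly; if unreached, use highest concentration. GI50 is the concentration that inhibits growth by half.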 Activity calls are given as the source filed them. No stated cut-off is given here; in the data, active = GI50 up to about 1.1 µM and inactive = higher. Non-standard residues stand in square brackets, D forms with d. Residues, ends and D or L forms follow the SMILES beside them. ξ: configuration not given here. *: point of attachment. Cbz = O=C(OCc1ccccc1)*; ξK = NCCCCC(N)C(=O)O

As usually defined, the GI50 is the concentration that inhibits growth by half.

As for `Nc1cc2c3c(cccc3c1)NC2=O`, the GI50 in the assay on ACHN is 25.1 µM (inactive); with CCRF-CEM it was 8.05 µM (inactive); in the assay on IGROV-1, > 100 µM (inactive); with EKVX it was 20.9 µM (inactive); with TK-10, > 100 µM (inactive); in the assay with SK-MEL-2, > 100 µM (inactive). The GI50 in the assay with HCT-116 was > 100 µM (inactive); in the assay on MDA-N, 68.7 µM (inactive); with PC-3, > 100 µM (inactive); with NCI-H522, 3.64 µM (inactive); in the assay on SNB-19, 84.9 µM (inactive); with NCI-H226, > 100 µM (inactive). Also, the GI50 in the assay on SF-539 was 80.7 µM (inactive); in the assay on NCI-H23 it was 79.8 µM (inactive); in the assay on 786-0 it was > 100 µM (inactive); in the assay with OVCAR-5, > 100 µM (inactive); in the assay with U-251 it was 31.8 µM (inactive); in the assay with T47D, 28 µM (inactive). Further, the GI50 with SF-295 was > 100 µM (inactive).
For the molecule `CC(C)(C)OC(=O)N/C(C=O)=C\C1CCCCC1`, the GI50 with ACHN is 29.3 µM (inactive); in the assay with CCRF-CEM, 29.6 µM (inactive); with IGROV-1, 20.7 µM (inactive); in the assay on EKVX, 17.2 µM (inactive); in the assay with TK-10, 17.7 µM (inactive); with SK-MEL-2, 24.8 µM (inactive). For the same molecule, the GI50 in the assay on HCT-116 is 16.3 µM (inactive); in the assay with MDA-N, 18.5 µM (inactive); with PC-3 it was 17.3 µM (inactive); in the assay with NCI-H522 it was 45.7 µM (inactive); in the assay on SNB-19, 25.1 µM (inactive); in the assay on NCI-H226, 21.2 µM (inactive). In addition, the GI50 was 28.4 µM (inactive) in the assay on SF-539; 23.7 µM (inactive) with NCI-H23; 19.9 µM (inactive) in the assay with 786-0; 19.8 µM (inactive) with OVCAR-5; 17.2 µM (inactive) in the assay on U-251; 24.6 µM (inactive) in the assay with T47D. For the same molecule, the GI50 in the assay on SF-295 is 29.8 µM (inactive).
`CCOC(=O)c1nc2c3c(ncn2n1)Oc1c(c(-c2ccccc2)nn1-c1ccccc1)C3c1ccc(Cl)cc1` (configuration not stated): the GI50 in the assay on ACHN, in the assay with CCRF-CEM, in the assay on TK-10, with SK-MEL-2, in the assay on HCT-116 and in the assay with MDA-N was > 100 µM (inactive) in each case. For the same molecule, the GI50 in the assay with PC-3, in the assay on NCI-H522, with SNB-19, in the assay with NCI-H226, in the assay on SF-539 and in the assay with NCI-H23 was > 100 µM (inactive) throughout. For the same molecule, the GI50 with 786-0, in the assay on OVCAR-5, in the assay on U-251, with T47D and with SF-295 was > 100 µM (inactive) in each case.
Turning to `O/N=C1/Nc2cc(Cl)ccc2C(=S)N2CSCC12` (configuration not stated), the GI50 in the assay with ACHN, in the assay on CCRF-CEM, in the assay with IGROV-1, in the assay on EKVX, with TK-10 and in the assay with SK-MEL-2 was > 100 µM (inactive) each time. Also, the GI50 in the assay on HCT-116, in the assay on MDA-N, in the assay on PC-3, in the assay on NCI-H522, in the assay on SNB-19 and in the assay on NCI-H226 was > 100 µM (inactive) in each case. The GI50 with 786-0, with OVCAR-5, in the assay on U-251, in the assay on T47D and in the assay with SF-295 was > 100 µM (inactive) in each case.
As to `COC12c3ccccc3-c3ccccc3C1[C@@H](C(=O)O)[C@H]2C(=O)O` (some centres not stated), the GI50 in the assay with ACHN, in the assay on CCRF-CEM, in the assay with IGROV-1, in the assay on EKVX, in the assay on TK-10 and in the assay with SK-MEL-2 was > 10 µM (inactive) each time. Further, the GI50 in the assay with MDA-N, in the assay on PC-3, with NCI-H522, in the assay on SNB-19, in the assay on NCI-H226 and in the assay with SF-539 was > 10 µM (inactive) each time. Besides, the GI50 in the assay on NCI-H23, with 786-0, with OVCAR-5, in the assay with U-251, in the assay with T47D and in the assay with SF-295 was > 10 µM (inactive) throughout.
Regarding `CC(C)(C)OC(=O)n1cc(C2CNC(=O)C23CCC(=O)N3Cc2ccccc2)c2ccccc21` (configuration not stated), the GI50 in the assay on CCRF-CEM was 25.9 µM (inactive); with IGROV-1, 17.3 µM (inactive); with EKVX, 22.4 µM (inactive); in the assay on TK-10, 17.1 µM (inactive); in the assay with SK-MEL-2, 17.2 µM (inactive); in the assay on HCT-116, 32.7 µM (inactive). In addition, the GI50 with MDA-N was 28.2 µM (inactive); in the assay with PC-3, 25.6 µM (inactive); in the assay on NCI-H522 it was 17.8 µM (inactive); in the assay on SNB-19 it was 33.3 µM (inactive); with NCI-H226 it was 19.9 µM (inactive); in the assay with SF-539, 19.4 µM (inactive). Besides, the GI50 is 23.2 µM (inactive) in the assay on NCI-H23; 24.7 µM (inactive) with 786-0; 19.5 µM (inactive) in the assay on OVCAR-5; 18.7 µM (inactive) in the assay on U-251; 26 µM (inactive) in the assay with T47D; 17.7 µM (inactive) in the assay with SF-295.
As for `CC(=O)Nc1c(S(=O)(=O)c2ccccc2)c(C)c(C)n1Cc1ccccc1`, the GI50 in the assay with ACHN, in the assay on CCRF-CEM, in the assay with IGROV-1, in the assay on EKVX, with TK-10 and with SK-MEL-2 was > 100 µM (inactive) each time. Further, the GI50 in the assay on HCT-116 was > 100 µM (inactive); with MDA-N, > 100 µM (inactive); in the assay with PC-3, 44.9 µM (inactive); in the assay with NCI-H522, > 100 µM (inactive); in the assay with SNB-19, > 100 µM (inactive); with NCI-H226, > 100 µM (inactive). Moreover, the GI50 in the assay with NCI-H23 was > 100 µM (inactive); with 786-0, > 100 µM (inactive); in the assay with OVCAR-5, > 100 µM (inactive); in the assay with U-251, > 100 µM (inactive); in the assay with T47D, > 10 µM (inactive); with SF-295, > 100 µM (inactive).
With `NCCCCC(NC(=O)OCc1ccccc1)C(=O)NCC(N)=O` (configuration not stated) (Cbz-[ξK]-Gly-NH2), the GI50 in the assay with ACHN, in the assay on CCRF-CEM, in the assay on IGROV-1, in the assay with EKVX, in the assay on SK-MEL-2 and with HCT-116 was > 100 µM (inactive) in each case. For the same molecule, the GI50 in the assay on MDA-N, with PC-3, in the assay on NCI-H522, with SNB-19, in the assay with NCI-H226 and in the assay on SF-539 was > 100 µM (inactive) each time. For the same molecule, the GI50 in the assay with NCI-H23, with 786-0, in the assay with OVCAR-5, in the assay on U-251, with T47D and in the assay with SF-295 was > 100 µM (inactive) in each case.
Take `O=C(CCCn1ccnc1[N+](=O)[O-])NCCn1cnc([N+](=O)[O-])n1`: the GI50 in the assay on ACHN, with CCRF-CEM, in the assay with IGROV-1, in the assay on TK-10, in the assay on SK-MEL-2 and with HCT-116 was > 100 µM (inactive) in each case. Moreover, the GI50 with MDA-N, in the assay with PC-3, in the assay on NCI-H522, with NCI-H226, with SF-539 and with NCI-H23 was > 100 µM (inactive) in each case. Also, the GI50 in the assay with 786-0, in the assay on OVCAR-5, with U-251, in the assay with T47D and in the assay with SF-295 was > 100 µM (inactive) in each case.
`NC(=O)C1=NNc2ccccc2C(=O)N1c1ccccc1`: the GI50 with ACHN, in the assay with CCRF-CEM, in the assay with IGROV-1, in the assay on EKVX, in the assay with TK-10 and with SK-MEL-2 was > 100 µM (inactive) each time. Besides, the GI50 in the assay on HCT-116, with MDA-N, with PC-3, in the assay with NCI-H522, in the assay on SNB-19 and in the assay on NCI-H226 was > 100 µM (inactive) in each case. Also, the GI50 in the assay on SF-539, in the assay on 786-0, in the assay on OVCAR-5, in the assay on U-251, in the assay with T47D and in the assay with SF-295 was > 100 µM (inactive) in each case.
As to `COc1ccc(C(=O)C#Cc2cnc(OC)nc2OC)cc1`, the GI50 with ACHN was 1.5 µM (inactive); with CCRF-CEM it was 0.13 µM (active); in the assay on IGROV-1, 1.45 µM (inactive); in the assay on EKVX it was 1.83 µM (inactive); in the assay on TK-10, 1.67 µM (inactive); with SK-MEL-2, 1.42 µM (inactive). Further, the GI50 in the assay with HCT-116 is 1.32 µM (inactive); in the assay with MDA-N, 1.58 µM (inactive); with PC-3, 1.26 µM (inactive); in the assay with NCI-H522, 1.39 µM (inactive); in the assay on SNB-19, 12.2 µM (inactive); with NCI-H226, 1.47 µM (inactive). For the same molecule, the GI50 is 1.48 µM (inactive) in the assay on NCI-H23; 1.94 µM (inactive) with 786-0; 1.64 µM (inactive) with OVCAR-5; 1.33 µM (inactive) with U-251; 1.89 µM (inactive) in the assay with T47D; 12.4 µM (inactive) in the assay on SF-295.
